Measurements reported in patent US20250236530A1, “ACCELERATED TOOTH REMINERALIZATION TECHNOLOGY” (Creighton University, priority 2022, published 2025).
Like-named read-outs stand apart in the source and are kept apart here.

Experiments:
[1] = for initial conductivity reading at 3 seconds: first reading 3 seconds; for percent of NaF dissolved in the first 3 seconds: from conductivity; for percent of salt dissolved in first 3 seconds: room temperature, FIG. 5; for 3 sec Dissolution: Table 4, 3 sec; for 200 sec Dissolution: Table 4, 200 sec; for 400 sec Dissolution: Table 4, 400 sec; for 800 sec Dissolution: Table 4, 800 sec
Protocol: Such a test is a standard test that is well understood in the scientific community. In this experiment, at room temperature, 35 mg of commercially available solid cubic sodium fluoride was added to a beaker. A conductivity probe was placed into the beaker. 25 mL of ultrapure water was added to the beaker, instantaneously submerging the conductivity probe. Conductivity data can be collected every 3 seconds on the probe.
This is tested by adding to a beaker 56 mg of the given salt to be tested. To this is added a conductivity probe. As the salt is added, the solution is stirred.
The dissolution rate of NaF crystals correlates to the conductivity of NaF in solution. That is to say, as salt dissolves in water, the conductivity of the salt solution increases. […] Conductivity is utilized to test the rate of dissolution. The conductivity of ultrapure water is approximately […] when no ions are present. The first reading on the conductivity meter can be made 3 seconds after the experiment begins.

[2] = Hall density (ASTM Standard B212-99)
[3] = Surface area (BET method) normalized to mass; assay type: physicochemical
Source text: Further characterization of the HSA NaF crystals compared to the solid cubic commercially available crystals of sodium fluoride examined the surface area (BET method) normalized to the mass of the crystals. […] Use of either of the Hall density of the surface area normalized to mass allows for a quantitative mechanism to differentiate the crystal formation.

## [F-].[Na+] [85% ethanol formulation, sodium fluoride]
[1]; FIG. 7A
  initial conductivity reading at 3 seconds: 2,068 μS/cm
  percent of NaF dissolved in the first 3 seconds: approximately 79%

## [F-].[Na+] [HSA NaF crystals, sodium fluoride]
[1]; 35 mg in 25 mL ultrapure water, listed as HSA crystal NaF
  percent of salt dissolved in first 3 seconds: approximately 90%
[1]; listed as High Surface Area
  3 sec Dissolution: ~2,600
  200 sec Dissolution: ~2,625
  400 sec Dissolution: ~2,700
  800 sec Dissolution: ~2,750
[1]; conductivity as a function of time
  rate of dissolution in aqueous environment compared with commercial cubic crystals: greater rate than commercially available cubic crystals
[1]; dissolution in water
  time to reach virtual maximum release: 3 s
[2]; listed as HSA NaF hopper crystals
  Hall density: 0.68 ± 0.04 g/mL
[3]; listed as hopper crystals
  surface area to mass ratio: 0.22±0.04 m^2/g

## [F-].[Na+] [commercial NaF, sodium fluoride]
[1]; 35 mg in 25 mL ultrapure water, listed as commercially available solid cubic sodium fluoride
  percent of salt dissolved in first 3 seconds: approximately 33%
[1]; FIG. 7A
  conductivity after all of the salt dissolved: 2,605 μS/cm
  time before all the NaF dissolved: About 500 seconds
  initial conductivity reading at 3 seconds: 1,127 μS/cm
  percent of NaF dissolved in the first 3 seconds: ~43%
[1]; listed as Ordinary
  3 sec Dissolution: ~1,000
  200 sec Dissolution: ~1,175
  400 sec Dissolution: ~1,500
  800 sec Dissolution: ~2,500
[1]; dissolution in water
  time for ordinary crystal to reach the concentration of HSA crystal's virtual maximum release: more than ten minutes
[2]; listed as Commercial solid cubic crystals of sodium fluoride
  Hall density: 0.86 ± 0.03 g/mL
[3]; listed as commercial crystals
  surface area to mass ratio: 0.12±0.02 m^2/g

## [F-].[Na+] [crystals made from precipitation into 90% ethanol] [sodium fluoride]
[1]; FIG. 7A
  percent of NaF dissolved in the first 3 seconds: 60%

## [F-].[Na+] [sodium fluoride]
[1]; 35 mg in 25 mL ultrapure water
  peak conductivity of sodium fluoride solution: approximately 3,000 μS/cm
